The target in test [1] is MDA-9/IGF-1R interactions (Homo sapiens, UniProt O00560). As to the kind of experiment: co-immunoprecipitation in DU145 and ARCaPM cells. It counts as cell-based. The note with it: PDZ1i for 6 h. On the procedure:
FIGS. 17A-17H. Effect of PDZ1i on invasion, MDA-9/IGF-R1 interaction and IGF-R1, STAT3 and SRC phosphorylation. FIG. 17A) Different cancer cells (25,000 cells/well) from various anatomic origins were pre-treated with either DMSO (vehicle) or PDZ1i (dose as indicated) and invasion ability was assayed using modified Boyden Chamber according to the manufacturer's instructions. Photomicrographs were taken at 10× magnification and quantification of the results of three independent experiments is provided in the graphs. The data presents mean±S.D. B) The designated cells were treated with DMSO or PDZ1i and invasion properties were determined using a modified Boyden Chamber assay (BD bioscience). RWPE-1 mda-9: mda-9 transiently overexpressing cell line. […] FIG. 17E) Cells were growth starved for 24 h and treated with either DMSO or PDZ1i (dose indicated in μM) for 6 h. Cells were treated with human recombinant IGFBP-2 (hIGFBP-2, 10 ng/ml) for 2 h, lysates were prepared and western blot analysis was conducted with specific antibodies. FIG. 17F) Cells were serum-starved for 24 h and treated with either DMSO or PDZ1i (20 μM) for 6 h. […] Cells were treated with human recombinant […] (hIGFBP-2, 1 ng/ml) for 2 h, cell lysates were prepared and analyzed by western blotting. […]
Next, the effect of PDZ1i on MDA-9 and IGF-1R interactions was determined. […]

A further test has as its system U1242 cells. As to the kind of experiment: Proteome Profiler Human Protease Array of conditioned media after radiation. It counts as cell-based. The note with it: 50 μM PDZ1i 2 hrs prior to radiation. On the procedure: FIGS. 10A-10L, PDZ1i inhibits key invasion proteins. U1242 cells were treated with either DMSO or 50 μM PDZ1i 2 hrs prior to radiation in serum-free media. After 48 hrs, media was collected analyzed via the Proteome Profiler Human Protease Array Kit (R&D Systems). Relative protein amounts of the indicated proteins were quantified via ImageJ. FIG. 10A, MMP1; FIG. 10B, MMP2; FIG. 10C, MMP3; FIG. 10D, MMP8; FIG. 10E, MMP9; FIG. 10F, MMP13; FIG. 10G. Cathepsin A; FIG. 10H, Cathepsin B; FIG. 10I, Cathepsin C; FIG. 10J, Cathepsin S; FIG. 10K, Cathepsin V; FIG. 10L, ASAM9.
Radiation can enhance the release of important enzymes, including those involved in invasion such as the matrix metalloproteinase family (MMP). We therefore determined if PDZ1i could affect the secretion of invasion-related proteins following radiation therapy. U1242 cells were treated for 2 hours prior to radiation therapy, and their media collected after 48 hours. […]
CM was harvested from an overnight culture of plated cells in serum-free DMEM+F12 media, filtered with […] filters and further concentrated 10-fold on an Amicon Ultra centrifugal filter—3K (Millipore, Billerica, Mass.). Protein levels were analyzed via the Proteome Profiler Human Protease Array Kit (R&D Systems, Minneapolis, Minn.). Relative quantification was performed by densitometry evaluation. X-ray films were scanned and analyzed with ImageJ software (NIH).

The test system of a further test is U87 cells. As to the kind of experiment: trans-well Matrigel invasion assay. It counts as cell-based, human. Here is the method: FIGS. 7A-7B. FIG. 7A. Im-PHFA, primary immortal human fetal astrocyte cells were infected with an MDA-9/Syntenin expression plasmid carrying adenovirus. 48 hrs post-infection both the control and MDA-9/Syntenin overexpressing cells were treated with DMSO or PDZ1i followed by seeding in a trans-well Matrigel invasion assay and stained after 24 hrs. FIG. 7B. T98G and U87 were treated with DMSO or PDZ1i and seeding in a trans-well Matrigel invasion assay and stained after 24 hrs. Invasion was quantified from 4 random fields. Data represents fold changes and average±S.D.
FIGS. 8A-8D. PDZ1i produces similar effects to mda-9/syntenin knockdown post-radiation. FIG. 8A. ImPHFA and U87 cells were treated with 50 μM PDZ1i 2 h prior to radiation and analyzed for colony formation after 14 d. […] U87 cells were treated with 50 μM PDZ1i 2 h prior to radiation and analyzed via MTT assay after 24 h. […] Invasion was quantified from 5 random fields in FIG. 8D. […]
Invasion was measured using 24-well BioCoat cell culture inserts (BD Biosciences, Bedford, Mass.) with an 8-μm-porosity polyethylene terephthalate membrane coated with Matrigel Basement Membrane Matrix (100 μg/cm^2). […] Cells remaining on the upper surface of the filters were removed by wiping with a cotton swab, and invasion was determined by counting the cells that migrated to the lower side of the filter using at least 5 fields per insert at 100× magnification. […]

This note sets out measurements from patent US11008325B2, “Inhibitors of cancer invasion, attachment, and/or metastasis” (VIRGINIA COMMONWEALTH UNIVERSITY, priority 2016, dated 2021).

MDA-9/IGF-1R interactions, sequence (O00560 2-298 limits assumed): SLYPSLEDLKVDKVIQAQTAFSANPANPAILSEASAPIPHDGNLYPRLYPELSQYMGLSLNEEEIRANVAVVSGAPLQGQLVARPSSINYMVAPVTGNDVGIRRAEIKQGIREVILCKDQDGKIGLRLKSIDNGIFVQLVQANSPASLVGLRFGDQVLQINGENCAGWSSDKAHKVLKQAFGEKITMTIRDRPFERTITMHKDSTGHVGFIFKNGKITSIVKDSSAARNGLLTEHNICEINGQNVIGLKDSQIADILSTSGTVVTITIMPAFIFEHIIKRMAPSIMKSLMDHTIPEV

Turning to `Cc1cc(NC(=O)c2nc3[nH]c4c(c(=O)n3n2)CCC4)c(C)cc1NC(=O)CCc1nnc(-c2ccccc2)o1` [113B7, N-(2,5-dimethyl-4-(3-(5-phenyl-1,3,4-oxadiazol-2-yl)propanamido)phenyl)-8-oxo-5,6,7,8-tetrahydro-4H-cyclopenta[d][1,2,4]triazolo[1,5-a]pyrimidine-2-carboxamide], in test [1], the MDA-9/IGF-1R interaction entry is recorded as “selectively inhibits”. The “radiation gains in Cathepsin family members and ADAM9” value in the test with U1242 cells is on record as “eliminated these gains”. Also, in the test on U1242 cells (media after 48 hrs), the “secreted MMP levels (MMP2, MMP9) after radiation” value is “reduced the levels”. Also, the radiation-induced invasion gains result with U87 cells (50 μM PDZ1i 2 h prior to 2 and 5 Gy) is “abolished these invasion gains”. Moreover, the invasion result in the test on U87 cells (PDZ1i versus DMSO) is on record as “effectively inhibited invasion”.
